{
  "source": "patent US20040132104A1",
  "about": "“Vitamin D assay” (priority 2003, published 2004)",
  "origin": "cited, not measured here",
  "target": "T1, Vitamin D binding protein (Homo sapiens, UniProt P02774)",
  "T1 sequence (P02774 17-474)": "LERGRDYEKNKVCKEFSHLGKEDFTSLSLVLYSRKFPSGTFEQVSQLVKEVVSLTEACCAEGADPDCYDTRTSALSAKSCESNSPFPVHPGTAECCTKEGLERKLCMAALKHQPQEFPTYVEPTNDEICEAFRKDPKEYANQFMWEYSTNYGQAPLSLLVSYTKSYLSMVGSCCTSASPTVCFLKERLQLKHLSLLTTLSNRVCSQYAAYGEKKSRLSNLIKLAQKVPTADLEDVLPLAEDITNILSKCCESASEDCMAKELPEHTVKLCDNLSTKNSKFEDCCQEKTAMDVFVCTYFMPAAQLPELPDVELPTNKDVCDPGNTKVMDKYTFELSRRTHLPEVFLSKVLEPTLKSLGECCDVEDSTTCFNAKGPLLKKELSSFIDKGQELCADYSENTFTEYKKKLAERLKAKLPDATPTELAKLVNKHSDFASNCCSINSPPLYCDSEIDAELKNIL",
  "conditions": "Vitamin D binding protein affinity for 25-OH Vitamin D",
  "data": [
    {"substance": "25-hydroxy-vitamin D [25-OH Vitamin D]", "values": [
      {"measurement": "affinity", "value": "5e+08", "unit": "M⁻¹"}
    ]}
  ]
}
